The results in this text go back to US12570613B2, “Imidazoquinoline or benzoindazolone compound and intermediate for preparing same” (LMITO THERAPEUTICS INC., priority 2020, dated 2026).

For the assay, the target named is NQO1 protein (Homo sapiens, UniProt P15559). Nature of the assay: In vitro NQO1 enzyme activity assay (cytochrome C reduction, absorbance at 550 nm). The assay is classed as biochemical. The note with it: NQO1 2 ng. As to the method:
In order to evaluate the activity of the synthesized compound in NQO1, the experiments were performed as follows:
The synthesized compound was dissolved in DMSO to make a 10 mM stock solution, which was further diluted with DMSO to 250 μM so as to prepare a working solution. For experimental groups, the working solution of the compound was added to an enzyme reaction solution in which 50 μL of 1.54 mM Cytochrome C solution was added to 900 μL of 50 mM Tris-HCl (pH7.5) containing 0.14% BSA. For negative control groups, DMSO not containing the compound of the invention was added to the enzyme reaction solution as above. For each experimental and control group, 20 μL of 100 ng/mL NQO1 protein was added, and then 10 μL of 20 mM NADH was added to bring up the total volume to 1 mL. The change of absorbance was measured at 550 nm for 10 minutes using 1 mL cuvette. The kinetics of reaction was measured by the increase of absorbance as the cytochrome C was reduced at 550 nm over 10 minutes. The activity of NQO1 was measured by the amount of cytochrome C that is being reduced (nmol cytochrome C that was reduced/min/ug NQO1 protein). • Absorption coefficient of Cytochrome C: 21.1 (μmol/mL)^−1cm^−1 • BSA: Bovine Serum Albumin • […]: Tris(hydroxymethyl)aminomethane hydrochloride (buffer solution) • Equipment=Cary 100 UV-Vis Spectrophotometer • The results are shown in Tables 1 to 8.

NQO1 protein, sequence (P15559 whole entry, species assumed): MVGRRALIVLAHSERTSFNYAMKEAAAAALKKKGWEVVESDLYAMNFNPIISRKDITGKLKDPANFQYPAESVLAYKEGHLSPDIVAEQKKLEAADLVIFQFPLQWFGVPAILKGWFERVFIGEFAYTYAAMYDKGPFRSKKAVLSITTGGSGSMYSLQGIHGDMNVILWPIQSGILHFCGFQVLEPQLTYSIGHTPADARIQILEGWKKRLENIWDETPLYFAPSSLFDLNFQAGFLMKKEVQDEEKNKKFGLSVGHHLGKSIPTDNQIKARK

On to `O=C1C(=O)c2ncc(-c3ccccc3)n2-c2ccccc21` [Compound 1, 1-Phenylimidazo[1,2-a]quinolin-4,5-dione], for which, where the note is “10 nM Compound (Table 1)”, the “NQO1 activity assay Cytochrome C reduced/min/μg NQO1 protein” value is reported as 658 nmol cytochrome C that was reduced/min/ug NQO1 protein.

Regarding `O=C1C(=O)c2ncc(-c3ccc(F)cc3)n2-c2ccccc21` [Compound 2, 1-(4-Fluorophenyl)imidazo[1,2-a]quinolin-4,5-dione], the “NQO1 activity assay Cytochrome C reduced/min/μg NQO1 protein” value (10 nM Compound (Table 1)) is on record as 455 nmol cytochrome C that was reduced/min/ug NQO1 protein.

With `CC(C)c1cnc2n1-c1ccccc1C(=O)C2=O` [Compound 3, 1-Isopropylimidazo[1,2-a]quinolin-4,5-dione], for the setting “10 nM Compound (Table 1)”, the “NQO1 activity assay Cytochrome C reduced/min/μg NQO1 protein” value was 755 nmol cytochrome C that was reduced/min/ug NQO1 protein.

Consider `O=C1C(=O)c2ncc(-c3ccc(C(F)(F)F)cc3)n2-c2ccccc21` [Compound 4, 1-(4-(Trifluoromethyl)phenyl)imidazo[1,2-a]quinoline-4,5-dione], for which the “NQO1 activity assay Cytochrome C reduced/min/μg NQO1 protein” value (10 nM Compound (Table 1)) is on record as 170 nmol cytochrome C that was reduced/min/ug NQO1 protein.

For `CCOC(=O)c1cn2c(n1)C(=O)C(=O)c1ccccc1-2` [Compound 5, Ethyl 4,5-dioxo-4,5-dihydroimidazo[1,2-a]quinolin-2-carboxylate], the “NQO1 activity assay Cytochrome C reduced/min/μg NQO1 protein” value (10 nM Compound (Table 1)) was 816 nmol cytochrome C that was reduced/min/ug NQO1 protein.

Turning to `CCOC(=O)c1nc2n(c1-c1ccccc1)-c1ccccc1C(=O)C2=O` [Compound 6, Ethyl 4,5-dioxo-1-phenyl-4,5-dihydroimidazo[1,2-a]quinolin-2-carboxylate], the “NQO1 activity assay Cytochrome C reduced/min/μg NQO1 protein” value (10 nM Compound (Table 1)) was 916 nmol cytochrome C that was reduced/min/ug NQO1 protein.

For `CN(C)C(=O)c1nc2n(c1-c1ccccc1)-c1ccccc1C(=O)C2=O` [Compound 7, N,N-dimethyl-4,5-dioxo-1-phenyl-4,5-dihydroimidazo[1,2-a]quinolin-2-carboxamide], the “NQO1 activity assay Cytochrome C reduced/min/μg NQO1 protein” value (10 nM Compound (Table 1)) was 96 nmol cytochrome C that was reduced/min/ug NQO1 protein.

With `CNC(=O)c1nc2n(c1-c1ccccc1)-c1ccccc1C(=O)C2=O` [Compound 8, N-methyl-4,5-dioxo-1-phenyl-4,5-dihydroimidazo[1,2-a]quinolin-2-carboxamide], the “NQO1 activity assay Cytochrome C reduced/min/μg NQO1 protein” value (10 nM Compound (Table 1)) is listed as 112 nmol cytochrome C that was reduced/min/ug NQO1 protein.

In the case of `Cc1nn(-c2ccccc2)c2c1C(=O)C(=O)c1ccccc1-2` [Compound 9, 3-Methyl-1-phenyl-1H-benzo[g]indazol-4,5-dione], the “NQO1 activity assay Cytochrome C reduced/min/μg NQO1 protein” value was 932 nmol cytochrome C that was reduced/min/ug NQO1 protein (10 nM Compound (Table 1)); 2093 nmol cytochrome C that was reduced/min/ug NQO1 protein (50 nM Compound (Table 2)); 3089 nmol cytochrome C that was reduced/min/ug NQO1 protein (50 nM Compound (Table 3)); 3864 nmol cytochrome C that was reduced/min/ug NQO1 protein (50 nM Compound (Table 4)); 3091 nmol cytochrome C that was reduced/min/ug NQO1 protein (50 nM Compound (Table 5)); 2885 nmol cytochrome C that was reduced/min/ug NQO1 protein (50 nM Compound (Table 6)). Moreover, the “NQO1 activity assay Cytochrome C reduced/min/μg NQO1 protein” value reads like this: (50 nM Compound (Table 7)) 2892 nmol cytochrome C that was reduced/min/ug NQO1 protein; (50 nM Compound (Table 8)) 2709 nmol cytochrome C that was reduced/min/ug NQO1 protein.

Take `CC(C)c1nn(-c2ccccc2)c2c1C(=O)C(=O)c1ccccc1-2` [Compound 10, 3-Isopropyl-1-phenyl-1H-benzo[g]indazol-4,5-dione]: the “NQO1 activity assay Cytochrome C reduced/min/μg NQO1 protein” value (10 nM Compound (Table 1)) is 138 nmol cytochrome C that was reduced/min/ug NQO1 protein.

Turning to `CCCCCCCc1nn(-c2ccccc2)c2c1C(=O)C(=O)c1ccccc1-2` [Compound 11, 3-Heptyl-1-phenyl-1H-benzo[g]indazol-4,5-dione], the “NQO1 activity assay Cytochrome C reduced/min/μg NQO1 protein” value (10 nM Compound (Table 1)) was 203 nmol cytochrome C that was reduced/min/ug NQO1 protein.

For `O=C1C(=O)c2c(CCc3ccccc3)nn(-c3ccccc3)c2-c2ccccc21` [Compound 12, 3-Phenethyl-1-phenyl-1H-benzo[g]indazol-4,5-dione], the “NQO1 activity assay Cytochrome C reduced/min/μg NQO1 protein” value (10 nM Compound (Table 1)) is reported as 225 nmol cytochrome C that was reduced/min/ug NQO1 protein.

For the compound `O=C1C(=O)c2c(-c3ccccc3)nn(-c3ccccc3)c2-c2ccccc21` [Compound 13, 1,3-Diphenyl-1H-benzo[g]indazol-4,5-dione], the “NQO1 activity assay Cytochrome C reduced/min/μg NQO1 protein” value (10 nM Compound (Table 1)) was 198 nmol cytochrome C that was reduced/min/ug NQO1 protein.

Consider `O=C1C(=O)c2c(-c3ccc(F)cc3)nn(-c3ccccc3)c2-c2ccccc21` [Compound 14, 3-(4-Fluorophenyl)-1-phenyl-1H-benzo[g]indazol-4,5-dione], for which, for the setting “10 nM Compound (Table 1)”, the “NQO1 activity assay Cytochrome C reduced/min/μg NQO1 protein” value is listed as 156 nmol cytochrome C that was reduced/min/ug NQO1 protein.

Regarding `O=C1C(=O)c2c(-c3ccc(F)c(F)c3)nn(-c3ccccc3)c2-c2ccccc21` [Compound 15, 3-(3,4-Difluorophenyl)-1-phenyl-1H-benzo[g]indazol-4,5-dione], the “NQO1 activity assay Cytochrome C reduced/min/μg NQO1 protein” value (10 nM Compound (Table 1)) was 190 nmol cytochrome C that was reduced/min/ug NQO1 protein.

Regarding `O=C1C(=O)c2c(CBr)nn(-c3ccccc3)c2-c2ccccc21` [Compound 16, 3-(Bromomethyl)-1-phenyl-1H-benzo[g]indazol-4,5-dione], the “NQO1 activity assay Cytochrome C reduced/min/μg NQO1 protein” value (10 nM Compound (Table 1)) was 596 nmol cytochrome C that was reduced/min/ug NQO1 protein.

`CN(C)Cc1nn(-c2ccccc2)c2c1C(=O)C(=O)c1ccccc1-2` [Compound 17, 3-((Dimethylamino)methyl)-1-phenyl-1H-benzo[g]indazol-4,5-dione]: the “NQO1 activity assay Cytochrome C reduced/min/μg NQO1 protein” value (10 nM Compound (Table 1)) is listed as 254 nmol cytochrome C that was reduced/min/ug NQO1 protein.

As to `COCc1nn(-c2ccccc2)c2c1C(=O)C(=O)c1ccccc1-2` [Compound 18, 3-(Methoxymethyl)-1-phenyl-1H-benzo[g]indazol-4,5-dione], the “NQO1 activity assay Cytochrome C reduced/min/μg NQO1 protein” value (10 nM Compound (Table 1)) is given as 189 nmol cytochrome C that was reduced/min/ug NQO1 protein.

As to `CC(C)OCc1nn(-c2ccccc2)c2c1C(=O)C(=O)c1ccccc1-2` [Compound 19, 3-(Isopropoxymethyl)-1-phenyl-1H-benzo[g]indazol-4,5-dione], the “NQO1 activity assay Cytochrome C reduced/min/μg NQO1 protein” value (10 nM Compound (Table 1)) is 106 nmol cytochrome C that was reduced/min/ug NQO1 protein.

Turning to `Cc1nn(C(C)C)c2c1C(=O)C(=O)c1ccccc1-2` [Compound 20, 1-Isopropyl-3-methyl-1H-benzo[g]indazol-4,5-dione], the “NQO1 activity assay Cytochrome C reduced/min/μg NQO1 protein” value (10 nM Compound (Table 1)) was 918 nmol cytochrome C that was reduced/min/ug NQO1 protein.

Regarding `Cc1c2c(nn1C(C)C)-c1ccccc1C(=O)C2=O` [Compound 21, 2-Isopropyl-3-methyl-2H-benzo[g]indazol-4,5-dione], the “NQO1 activity assay Cytochrome C reduced/min/μg NQO1 protein” value (10 nM Compound (Table 1)) was 925 nmol cytochrome C that was reduced/min/ug NQO1 protein.

Take `Cc1nn(C)c2c1C(=O)C(=O)c1ccccc1-2` [Compound 22, 1,3-Dimethyl-1H-benzo[g]indazol-4,5-dione]: the “NQO1 activity assay Cytochrome C reduced/min/μg NQO1 protein” value (10 nM Compound (Table 1)) was 481 nmol cytochrome C that was reduced/min/ug NQO1 protein.

Take `Cc1c2c(nn1C)-c1ccccc1C(=O)C2=O` [Compound 23, 2,3-Dimethyl-2H-benzo[g]indazol-4,5-dione]: the “NQO1 activity assay Cytochrome C reduced/min/μg NQO1 protein” value (10 nM Compound (Table 1)) is reported as 477 nmol cytochrome C that was reduced/min/ug NQO1 protein.

On to `O=C1C(=O)c2c(Cn3ccnc3)nn(-c3ccccc3)c2-c2ccccc21` [Compound 24, 3-((1H-Imidazol-1-yl)methyl)-1-phenyl-1H-benzo[g]indazol-4,5-dione], for which, under “10 nM Compound (Table 1)”, the “NQO1 activity assay Cytochrome C reduced/min/μg NQO1 protein” value is listed as 596 nmol cytochrome C that was reduced/min/ug NQO1 protein.
